The results in this text go back to ChEMBL document CHEMBL1134145, “Carbohydrate recognition of gramicidin S analogues in aqueous medium” (Bioorg Med Chem Lett, 2001).

Series [1] can be described thus: Dissociation constant of compound with Fructose was determined. In kind it is physicochemical.
A short description of series [2]: Dissociation constant of compound with Lactulose was determined. Type of series: physicochemical.

As for `NCCC[C@@H]1NC(=O)[C@H](CC(N)=O)NC(=O)[C@@H]2CCCN2C(=O)[C@@H](Cc2ccccc2)NC(=O)[C@H](Cc2c[nH]c3ccccc23)NC(=O)[C@H](CCCN)NC(=O)[C@H](CC(N)=O)NC(=O)[C@@H]2CCCN2C(=O)[C@@H](Cc2ccccc2)NC(=O)[C@H](Cc2c[nH]c3ccccc23)NC1=O`, the dissociation constant (Kd) in series [1] came to 1500 µM; in series [2], 200 µM. For `NCCC[C@@H]1NC(=O)[C@H](CC(=O)O)NC(=O)[C@@H]2CCCN2C(=O)[C@@H](Cc2ccccc2)NC(=O)[C@H](Cc2c[nH]c3ccccc23)NC(=O)[C@H](CCCN)NC(=O)[C@H](CC(N)=O)NC(=O)[C@@H]2CCCN2C(=O)[C@@H](Cc2ccccc2)NC(=O)[C@H](Cc2c[nH]c3ccccc23)NC1=O` the same measures were 4700 µM and 180 µM. For `NCCC[C@@H]1NC(=O)[C@H](CCC(N)=O)NC(=O)[C@@H]2CCCN2C(=O)[C@@H](Cc2ccccc2)NC(=O)[C@H](Cc2c[nH]c3ccccc23)NC(=O)[C@H](CCCN)NC(=O)[C@H](CCC(N)=O)NC(=O)[C@@H]2CCCN2C(=O)[C@@H](Cc2ccccc2)NC(=O)[C@H](Cc2c[nH]c3ccccc23)NC1=O`, binding in series [2] was put at a Kd of 30 µM.

Consider `NCCC[C@@H]1NC(=O)[C@H](CC(=O)O)NC(=O)[C@@H]2CCCN2C(=O)[C@@H](Cc2ccccc2)NC(=O)[C@H](Cc2c[nH]c3ccccc23)NC(=O)[C@H](CCCN)NC(=O)[C@H](CC(=O)O)NC(=O)[C@@H]2CCCN2C(=O)[C@@H](Cc2ccccc2)NC(=O)[C@H](Cc2c[nH]c3ccccc23)NC1=O`, for which the Kd in series [1] was 1500 µM. This lies in the millimolar range.
